tested on: HT29 cells; experiment: Inhibition of cell necrosis (CCK8 method), induced programmed necrosis of HT29 cells; format: cell-based; details: Homo sapiens, HT-29; rescue from necrosis induced by TNF-α 20 ng/mL, AT-406 1 μM, Z-VAD-FMK 20 μM; 16-20 hours; CCK-8, OD 450 nm
Outline: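 Rescue from programmed necrosis was scored by CCK-8 absorbance at 450 nm after 16-20 h of TNF-α (20 ng/mL), AT-406 (1 μM) and Z-VAD-FMK (20 μM) at 37 °C, 5% CO2. HT29 cells had received compound 30 min earlier across nine 4-fold dilutions (top 25000 nM final). IC50 came from % inhibition relative to uninduced and induced-only wells.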

CCOc1cccc(C)c1-c1ccnc(NC(=O)c2nnc(Cc3ccccc3)[nH]2)c1 [Example 93, 5-benzyl-N-(4-(2-ethoxy-6-methylphenyl)pyridin-2-yl)-4H-1,2,4-triazole-3-carboxamide] and COCCOc1cccc(C)c1-c1ccnc(NC(=O)c2nnc(Cc3ccccc3)[nH]2)c1 [Example 94, 5-benzyl-N-(4-(2-(2-methoxyethoxy)-6-methylphenyl)pyridin-2-yl)-4H-1,2,4-triazole-3-carboxamide] fall in the same range of IC50: 1000 to 10000 nM for the first, 1000 to 10000 nM for the second.

Cc1c(OCCO)cccc1-c1ccnc(NC(=O)c2nnc(Cc3ccccc3)[nH]2)c1 [Example 95, 5-benzyl-N-(4-(3-(2-hydroxyethoxy)-2-methylphenyl)pyridin-2-yl)-4H-1,2,4-triazole-3-carboxamide] and Cc1c(OCCCO)cccc1-c1ccnc(NC(=O)c2nnc(Cc3ccccc3)[nH]2)c1 [Example 97, 5-benzyl-N-(4-(3-(3-hydroxylpropoxy)-2-methylphenyl)pyridin-2-yl)-4H-1,2,4-triazole-3-carboxamide] fall in the same range of IC50: 100 to 1000 nM for the first, 100 to 1000 nM for the second.

COCCOc1cccc(-c2ccnc(NC(=O)c3nnc(Cc4ccccc4)[nH]3)c2)c1C [Example 96, 5-benzyl-N-(4-(3-(2-methoxyethoxy)-2-methylphenyl)pyridin-2-yl)-4H-1,2,4-triazole-3-carboxamide] and COCCCOc1cccc(-c2ccnc(NC(=O)c3nnc(Cc4ccccc4)[nH]3)c2)c1C [Example 98, 5-benzyl-N-(4-(3-(3-methoxypropoxy)-2-methylphenyl)pyridin-2-yl)-4H-1,2,4-triazole-3-carboxamide] fall in the same range of IC50: 100 to 1000 nM for the first, 100 to 1000 nM for the second.

First: Cc1c(OCCCCO)cccc1-c1ccnc(NC(=O)c2nnc(Cc3ccccc3)[nH]2)c1 [Example 99, 5-benzyl-N-(4-(3-(4-hydroxybutoxy)-2-methylphenyl)pyridin-2-yl)-4H-1,2,4-triazole-3-carboxamide]
Second: O=C(Nc1cc(-c2ccccc2OCCO)ccn1)c1nnc(Cc2ccccc2)[nH]1 [Example 124, 5-benzyl-N-(4-(2-(2-hydroxyethoxy)phenyl)pyridin-2-yl)-4H-1,2,4-triazole-3-carboxamide]
The IC50 of the first is lower: 100 to 1000 nM for the first, 1000 to 10000 nM for the second.

First: CCCCCCCCOc1ccc(C)c(-c2ccnc(NC(=O)c3nnc(Cc4ccccc4)[nH]3)c2)c1 [Example 100, 5-benzyl-N-(4-(2-methyl-5-(octyloxy)phenyl)pyridin-2-yl)-4H-1,2,4-triazole-3-carboxamide]
Second: CCOc1ccc(C)c(-c2ccnc(NC(=O)c3nnc(Cc4ccccc4)[nH]3)c2)c1 [Example 108, 5-benzyl-N-(4-(5-ethoxy-2-methylphenyl)pyridin-2-yl)-4H-1,2,4-triazole-3-carboxamide]
The IC50 of the first is lower: 100 to 1000 nM for the first, 1000 to 10000 nM for the second.

COc1ccc(C)c(-c2ccnc(NC(=O)c3nnc(Cc4ccccc4)[nH]3)c2)c1 [Example 101, 5-benzyl-N-(4-(5-methoxy-2-methylphenyl)pyridin-2-yl)-4H-1,2,4-triazole-3-carboxamide] and Cc1ccc(OC(C)C)cc1-c1ccnc(NC(=O)c2nnc(Cc3ccccc3)[nH]2)c1 [Example 114, 5-benzyl-N-(4-(5-isopropoxy-2-methylphenyl)pyridin-2-yl)-4H-1,2,4-triazole-3-carboxamide] fall in the same range of IC50: 100 to 1000 nM for the first, 100 to 1000 nM for the second.

COc1ccc(C)c(-c2ccnc(NC(=O)c3nnc(CC4CCCC4)[nH]3)c2)c1 [Example 102, 5-(cyclopentylmethyl)-N-(4-(5-methoxy-2-methylphenyl)pyridin-2-yl)-4H-1,2,4-triazole-3-carboxamide] and COc1ccc(C)c(-c2ccnc(NC(=O)c3nnc(CC4CCCCC4)[nH]3)c2)c1 [Example 103, 5-(cyclohexylmethyl)-N-(4-(5-methoxy-2-methylphenyl)pyridin-2-yl)-4H-1,2,4-triazole-3-carboxamide] fall in the same range of IC50: 100 to 1000 nM for the first, 100 to 1000 nM for the second.

CCc1ccc(OC)c(-c2ccnc(NC(=O)c3nnc(Cc4ccccc4)[nH]3)c2)c1 [Example 104, 5-benzyl-N-(4-(5-ethyl-2-methoxyphenyl)pyridin-2-yl)-4H-1,2,4-triazole-3-carboxamide] and CCOc1ccc(OC)c(-c2ccnc(NC(=O)c3nnc(Cc4ccccc4)[nH]3)c2)c1 [Example 107, 5-benzyl-N-(4-(5-ethoxy-2-methoxyphenyl)pyridin-2-yl)-4H-1,2,4-triazole-3-carboxamide] fall in the same range of IC50: 1000 to 10000 nM for the first, 1000 to 10000 nM for the second.

CCOc1ccc(Cl)c(-c2cncc(NC(=O)c3nnc(Cc4ccccc4)[nH]3)c2)c1 [Example 105, 5-benzyl-N-(5-(2-chloro-5-ethoxyphenyl)pyridin-3-yl)-4H-1,2,4-triazole-3-carboxamide] and CC(C)Oc1ccc(Cl)c(-c2cncc(NC(=O)c3nnc(Cc4ccccc4)[nH]3)c2)c1 [Example 110, 5-benzyl-N-(5-(2-chloro-5-isopropoxyphenyl)pyridin-3-yl)-4H-1,2,4-triazole-3-carboxamide] cannot be ordered by IC50: greater than 10000 nM for the first, greater than 10000 nM for the second.

First: CCOc1ccc(Cl)c(-c2ccnc(NC(=O)c3nnc(Cc4ccccc4)[nH]3)c2)c1 [Example 106, 5-benzyl-N-(4-(2-chloro-5-ethoxyphenyl)pyridin-2-yl)-4H-1,2,4-triazole-3-carboxamide]
Second: CC(C)Oc1ccc(Cl)c(-c2ccnc(NC(=O)c3nnc(Cc4ccccc4)[nH]3)c2)c1 [Example 111, 5-benzyl-N-(4-(2-chloro-5-isopropoxyphenyl)pyridin-2-yl)-4H-1,2,4-triazole-3-carboxamide]
The IC50 of the first is higher: 1000 to 10000 nM for the first, no more than 100 nM for the second. The second is the more potent here.

Compared with CCn1nc(C)cc1-c1ccnc(NC(=O)c2nnc(Cc3ccccc3)[nH]2)c1 [Example 109, 5-benzyl-N-(4-(1-ethyl-3-methyl-1H-pyrazol-5-yl)pyridin-2-yl)-4H-1,2,4-triazole-3-carboxamide], COCCOc1cnc(C)c(-c2ccnc(NC(=O)c3nnc(Cc4ccccc4)[nH]3)c2)c1 [Example 129, 5-benzyl-N-(5-(2-methoxyethoxy)-2-methyl-[3,4′-bipyridin]-2′-yl)-4H-1,2,4-triazole-3-carboxamide] is lower in IC50: 1000 to 10000 nM for the first, 100 to 1000 nM for the second.

First: COc1ccc(OC(C)C)cc1-c1ccnc(NC(=O)c2nnc(Cc3ccccc3)[nH]2)c1 [Example 112, 5-benzyl-N-(4-(5-isopropoxy-2-methoxyphenyl)pyridin-2-yl)-4H-1,2,4-triazole-3-carboxamide]
Second: COCCOc1ccc(C)c(-c2ccnc(NC(=O)c3nnc(Cc4ccccc4)[nH]3)c2)c1 [Example 128, 5-benzyl-N-(4-(5-(2-methoxyethoxy)-2-methylphenyl)pyridin-2-yl)-4H-1,2,4-triazole-3-carboxamide]
The IC50 of the first is higher: 1000 to 10000 nM for the first, no more than 100 nM for the second.

First: Cc1ccc(OC(C)C)cc1-c1cncc(NC(=O)c2nnc(Cc3ccccc3)[nH]2)c1 [Example 113, 5-benzyl-N-(5-(5-isopropoxy-2-methylphenyl)pyridin-3-yl)-4H-1,2,4-triazole-3-carboxamide]
Second: Cc1ccc(OCC(C)(C)O)cc1-c1ccnc(NC(=O)c2nnc(Cc3ccccc3)[nH]2)c1 [Example 117, 5-benzyl-N-(4-(5-(2-hydroxyl-2-methylpropoxy)-2-methylphenyl)pyridin-2-yl)-4H-1,2,4-triazole-3-carboxamide]
The IC50 of the first is higher: greater than 10000 nM for the first, no more than 100 nM for the second.

Cc1ccc(OCCC(C)(C)C)cc1-c1ccnc(NC(=O)c2nnc(Cc3ccccc3)[nH]2)c1 [Example 115, 5-benzyl-N-(4-(5-(3,3-dimethylbutoxy)-2-methylphenyl)pyridin-2-yl)-4H-1,2,4-triazole-3-carboxamide] and Cc1ccc(OCCO)cc1-c1ccnc(NC(=O)c2nnc(Cc3ccccc3)[nH]2)c1 [Example 125, 5-benzyl-N-(4-(5-(2-hydroxyethoxy)-2-methylphenyl)pyridin-2-yl)-4H-1,2,4-triazole-3-carboxamide] fall in the same range of IC50: 100 to 1000 nM for the first, 100 to 1000 nM for the second.

Cc1ccc(OCC(N)=O)cc1-c1ccnc(NC(=O)c2nnc(Cc3ccccc3)[nH]2)c1 [Example 116, N-(4-(5-(2-amino-2-oxoethoxy)-2-methylphenyl)pyridin-2-yl)-5-benzyl-4H-1,2,4-triazole-3-carboxamide] and Cc1ccc(OCC#N)cc1-c1ccnc(NC(=O)c2nnc(Cc3ccccc3)[nH]2)c1 [Example 120, 5-benzyl-N-(4-(5-(cyanomethoxy)-2-methylphenyl)pyridin-2-yl)-4H-1,2,4-triazole-3-carboxamide] fall in the same range of IC50: 100 to 1000 nM for the first, 100 to 1000 nM for the second.

Cc1ccc(OCC(C)(C)O)cc1-c1ccnc(NC(=O)c2nnc(CC3CCCC3)[nH]2)c1 [Example 118, 5-(cyclopentylmethyl)-N-(4-(5-(2-hydroxyl-2-methylpropoxy)-2-methylphenyl)pyridin-2-yl)-4H-1,2,4-triazole-3-carboxamide] and Cc1ccc(OCC(C)(C)O)cc1-c1ccnc(NC(=O)c2nnc(CC3CCCCC3)[nH]2)c1 [Example 119, 5-(cyclohexylmethyl)-N-(4-(5-(2-hydroxyl-2-methylpropoxy)-2-methylphenyl)pyridin-2-yl)-4H-1,2,4-triazole-3-carboxamide] cannot be ordered by IC50: no more than 100 nM for the first, no more than 100 nM for the second.

Cc1ccc(OCC2CCCO2)cc1-c1ccnc(NC(=O)c2nnc(Cc3ccccc3)[nH]2)c1 (stereo not drawn) [Example 121, 5-benzyl-N-(4-(2-methyl-5-((tetrahydrofuran-2-yl)methoxy)phenyl)pyridin-2-yl)-4H-1,2,4-triazole-3-carboxamide] and Cc1ccc(OCC2CCCCO2)cc1-c1ccnc(NC(=O)c2nnc(Cc3ccccc3)[nH]2)c1 (stereo not drawn) [Example 123, 5-benzyl-N-(4-(2-methyl-5-((tetrahydro-2H-pyran-2-yl)methoxy)phenyl)pyridin-2-yl)-4H-1,2,4-triazole-3-carboxamide] cannot be ordered by IC50: no more than 100 nM for the first, no more than 100 nM for the second.

First: Cc1ccc(OCC2CCOC2)cc1-c1ccnc(NC(=O)c2nnc(Cc3ccccc3)[nH]2)c1 (stereo not drawn) [Example 122, 5-benzyl-N-(4-(2-methyl-5-((tetrahydrofuran-3-yl)methoxy)phenyl)pyridin-2-yl)-4H-1,2,4-triazole-3-carboxamide]
Second: COCCOc1ccccc1-c1ccnc(NC(=O)c2nnc(Cc3ccccc3)[nH]2)c1 [Example 126, 5-benzyl-N-(4-(2-(2-methoxyethoxy)phenyl)pyridin-2-yl)-4H-1,2,4-triazole-3-carboxamide]
The IC50 of the first is lower: no more than 100 nM for the first, 1000 to 10000 nM for the second.

From patent US12435060B2, “Acylamino bridged heterocyclic compound, and composition and application thereof” (BEIJING SCITECH-MQ PHARMACEUTICALS LIMITED, priority 2019, dated 2025)
